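Step 1: Grow cells in 96-well plates. Step 2: Expose to compound for 48 hours at 5 concentrations. Step 3: Interpolate endpoints linearly; if unreached, use highest concentration. The concentration for 50% growth inhibition is given as GI50. TGI marks complete inhibition of growth.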
Tests used:
Test in all cases: NCI tumour cell line growth inhibition, 48 h
[1] = system: LOX IMVI melanoma
[2] = system: UO-31 renal
[3] = system: SF-268 CNS
[4] = system: HOP-62 NSCLC
[5] = system: MALME-3M melanoma
[6] = system: SN12C renal
[7] = system: OVCAR-4 ovarian
[8] = system: COLO 205 colon
[9] = system: K-562 leukemia
[10] = system: RXF 393 renal

| Structure (SMILES) | GI50 [1] [µM] | TGI [1] [µM] | GI50 [2] [µM] | TGI [2] [µM] | GI50 [3] [µM] | TGI [3] [µM] | GI50 [4] [µM] | TGI [4] [µM] | GI50 [5] [µM] | TGI [5] [µM] | GI50 [6] [µM] | TGI [6] [µM] | GI50 [7] [µM] | TGI [7] [µM] | GI50 [8] [µM] | TGI [8] [µM] | GI50 [9] [µM] | TGI [9] [µM] | GI50 [10] [µM] | TGI [10] [µM] |
| --- | --- | --- | --- | --- | --- | --- | --- | --- | --- | --- | --- | --- | --- | --- | --- | --- | --- | --- | --- | --- |
| COc1cccc(-c2nn(-c3ccccc3)cc2-c2ccnc(NCCCNS(=O)(=O)c3cccc(F)c3)c2)c1 | 4.05 | > 100 | 1.87 | > 100 | 5.63 | > 100 | 10.4 | > 100 | 5.16 | > 100 | 5.37 | > 100 | 3.28 | > 100 | 2.41 | 9.39 | 3.31 | > 100 | 4.18 | > 100 |
| COc1cc2c(NCCCCCCO[N+](=O)[O-])ncnc2c(OC)c1OC | – | 49.3 | – | 21.2 | – | > 100 | – | 66.7 | – | 31.9 | – | > 71.5 | – | > 100 | – | 51.6 | – | > 100 | – | 75.2 |
| C#CC(C)(C)Oc1cc(O)c2c(=O)c3ccccc3n(C)c2c1 | – | 44.3 | – | > 100 | – | > 100 | – | > 100 | – | > 100 | – | > 100 | – | > 100 | – | > 100 | – | > 100 | – | > 100 |
| COc1cc2c(c(O)c1C)C(=O)C(Cl)=CC2=O | – | 23.8 | – | 21.6 | – | 40 | – | > 69.2 | – | 12.5 | – | 27.6 | – | 33.7 | – | 4.96 | – | 8.64 | – | 13.1 |
| CCN1CCN(c2nc(NCCNc3ccnc4cc(Cl)ccc34)c3ccccc3n2)CC1 | 1.51 | 3.01 | 1.53 | 3.3 | 2.51 | 13.3 | 1.95 | 6.43 | 1.95 | 3.58 | 1.21 | 2.88 | 1.78 | 4.45 | 0.505 | 2.07 | 1.03 | 3.89 | 1.26 | 2.77 |
| CC(=O)/C=C/c1cccc(N=S)c1 | – | 5.92 | – | > 74 | – | > 69.6 | – | > 100 | – | > 100 | – | 87.2 | – | > 100 | – | > 48 | – | > 35.9 | – | 53.8 |
| O=S(=O)(O)C(O)/C=C/c1ccccc1 (stereo not given) | – | > 100 | – | > 100 | – | > 100 | – | > 100 | – | > 100 | – | > 100 | – | > 100 | – | > 100 | – | > 100 | – | > 100 |
| OC(c1cccc(C(F)(F)F)c1)c1cnccc1NC1CCCCCC1 (stereo not given) | 1.59 | 2.98 | 1.35 | 2.97 | 3.29 | 13.8 | 1.89 | 3.63 | 1.51 | 2.94 | 1.87 | 4.08 | 1.83 | 6.33 | 1.73 | 3.37 | 1.57 | 4.51 | 1.44 | 2.89 |
| CN1CCN(Cc2ccc(NC(=O)c3cncc(C#Cc4cnc(N)c5ccccc45)c3)cc2C(F)(F)F)CC1 | 0.387 | 0.837 | 0.436 | 0.869 | 0.321 | 0.832 | 0.324 | 1.25 | 0.315 | 0.774 | 0.242 | 0.693 | 0.117 | 0.738 | 0.405 | 0.948 | 0.00333 | 0.524 | 0.163 | 0.563 |
| CC1=C[C@@H]2Cc3occc3C(C)(C)[C@@H]2CC1 | – | 33.6 | – | 33.8 | – | 38.3 | – | 92.2 | – | 44.2 | – | 29.8 | – | 84.4 | – | 33.7 | – | 42.6 | – | 33.7 |
| C[C@@H]1Cc2c([nH]c3ccccc23)[C@@H](c2c(F)cc(/C=C/C(=O)O)cc2F)N1CC(C)(C)F | 12.3 | 27.2 | 8.1 | 21.6 | 14.2 | 31.8 | 15.5 | 31.7 | 15.5 | 34.3 | 11.9 | 38.3 | 15.2 | 52.8 | 16.5 | 39.8 | 13.6 | 46.1 | 11.7 | 26.2 |
| CC1(C)N=C(N)N=C(N)N1c1ccc(CCCCc2ccc(S(=O)(=O)F)cc2Cl)c(Cl)c1 | – | 43.9 | – | 224 | – | 29.3 | – | 47.2 | – | 33.8 | – | 90.3 | – | > 468 | – | 78 | – | 64.3 | – | 187 |
| O=C1CSC(N2CCN(c3cccc(Cl)c3)CC2)=N1 | > 100 | > 100 | > 100 | > 100 | > 100 | > 100 | > 100 | > 100 | > 100 | > 100 | > 100 | > 100 | > 100 | > 100 | > 100 | > 100 | > 100 | > 100 | > 100 | > 100 |
| CC1=C2[C@@H](CC1)[C@]1(C)O[C@@](C(C)C)(C[C@H]1OC(=O)[C@H](C)O)[C@H]2OC(=O)/C=C/c1ccccc1 | 15.1 | 30.7 | 1.01 | 18.7 | 2.13 | 23.1 | 13.9 | 29.3 | 14.9 | 31.6 | 1.47 | 24.6 | 10.3 | 24.9 | 16.9 | 36.2 | 12.5 | 49.8 | 0.111 | 2.41 |
| Clc1ccc(Cc2nc3cc4ccccc4cc3[nH]2)cc1 | 13.2 | > 100 | 54.1 | > 100 | 10.9 | 75.7 | 10.2 | 30.8 | 26.8 | > 100 | 94.8 | > 100 | 22.7 | > 100 | 8.64 | > 100 | 50.8 | > 100 | > 100 | > 100 |

Reference: PubChem BioAssay (NCI)
